Measurements: patent US8871741B2, “Inhibition of TNF-α induced activation of NFKB by pentosan polysulfate” (Icahn School of Medicine at Mount Sinai, priority 2010, dated 2014)
“Also recorded” adds a separate entry of the source.

Assays:
MMP-2 = assay: Zymography of aortic extracts; format: in vivo, rabbit; conditions: PPS-treated WHHL rabbits, 75 days HC-diet
Protocol: MMP activity in aortic extracts and conditioned media from monocytes was assessed, as previously described (Jacot T A, et al., Lab Invest. 1996; 75:791-79). Briefly, aortic segments were homogenized and extracted in RIPA buffer (25 mM Tris, pH 7.4, 150 mM KCl, 5 mM EDTA, 1% Nonidet P-40, 0.5% sodium deoxycholate, and 0.1% SDS). Insoluble material was precipitated by centrifugation, and soluble extracts were collected and stored at −20° C. for further analysis. For in vitro experiments, cell supernatants were centrifuged to remove cellular debris, and diluted appropriately to normalize for cell number. Aortic extracts and conditioned media were then mixed with sample buffer (1% SDS, 0.08 M Tris pH 6.8, 4% glycerol, and 0.006% bromophenol blue), and loaded onto a 10% gelatin polyacrylamide gel, and processed as described (Jacot T A, et al., Lab Invest. 1996; 75:791-79). For reverse zymography, samples were loaded onto a 15% gelatin polyacrylamide gel containing 0.5% porcine gelatin and 6 μg recombinant gelatinase A, and processed as described (Elliot S J, et al., J Am Soc Nephrol. 1999; 10: 62-68).

MMP-9 = assay: Zymography of U937 cell supernatants, MMP-9; format: cell-based, human; conditions: U937 cells stimulated with 10 ng/ml TNF-α, 100 μg/ml PPS; P<0.01
Protocol: Human pro-monocytic U937 cells were obtained from American Type Culture Collection (Manassas, Va.) and grown in RPMI medium supplemented with 10% FBS. U937 cells were plated in six-well plates at a density of 5×10^6 cells/ml. The cells were then stimulated with 10 ng/ml TNF-α, in the presence or absence of either increasing concentrations of PPS (10-100 μg/ml) or heparin (100 μg/ml), and incubated at 37° C. for 3 hours. Following stimulation, cells were placed in 0.1% BSA-serum-free medium for 16-18 hours. The media was then collected, centrifuged, and supernatants were stored at −80° C. for the assessment of MMP activity. The cell number was determined by direct cell counting.
MMP activity in aortic extracts and conditioned media from monocytes was assessed, as previously described (Jacot T A, et al., Lab Invest. 1996; 75:791-79). Briefly, aortic segments were homogenized and extracted in RIPA buffer (25 mM Tris, pH 7.4, 150 mM KCl, 5 mM EDTA, 1% Nonidet P-40, 0.5% sodium deoxycholate, and 0.1% SDS). Insoluble material was precipitated by centrifugation, and soluble extracts were collected and stored at −20° C. for further analysis. For in vitro experiments, cell supernatants were centrifuged to remove cellular debris, and diluted appropriately to normalize for cell number. […]

TNFα mRNA = assay: PCR of TNFα mRNA in kidney; format: in vivo, mouse; conditions: PPS treated 22 month-old diabetic mice, up to 40 PCR cycles
Protocol: mRNA levels were corrected by the levels of β-actin or GAPDH mRNA. The expression of TNFα mRNA in kidney was determined by both a real time and a regular PCR using the primer of forward, 5′-[…]-3′ (SEQ ID NO: 17), reverse, 5′-[…]-3′ (SEQ ID NO: 18). GAPDH and β-actin mRNA levels were measured in the same sample.

ERK1/2 = assay: TNFα stimulated ERK1/2 phosphorylation in proximal tubular cells, Western-blot; format: cell-based, mouse
Protocol: The activation of NF-κB and mitogen activated protein kinases including p38, JNK (Jun N-terminal kinase), and ERK (extracellular signal regulated kinase) pathways play an essential role in proinflammatory actions of TNFα. Thus, it was examined whether PPS affected the phosphorylation of IκB, ERK, p38, and JNK by TNFα. Proximal tubular cells were allowed to grow to 70% confluency in […] petri-dish. Cell lysates were collected before or 15, 30, 60, and 120 minutes after TNFα treatment (10 ng/ml). Cells in some dishes were pre-incubated with PPS (400 μg/ml) for ½ hour before exposure to TNFα. The levels of phosphorylated IκB, ERK, p38, and JNK were determined by Western-blots. Briefly, equal amounts of protein samples (10-20 μg/lane) were loaded onto SDS-PAGE gels. After electrophoresis, proteins were transferred to nitrocellulose membranes and blotted with antibody against phosphorylated IκB, ERK, p38, or JNK (Cell signaling, Boston, Mass.). After the first analysis, the membranes were stripped to re-probe with antibody against total IκB, ERK, p38 or JNK, and ERK and finally with antibody against β-actin (Cell signaling, Boston, Mass.).

podocytes = assay: Albumin permeability of podocyte monolayers (FITC-labeled BSA flux); format: cell-based; conditions: podocyte monolayer
Protocol: 1×10^5 podocytes were seeded onto collagen-coated transwell filters ([…] pore-size, Corning, N.Y., N.Y.) placed in the top chamber of each well of a 24-well plate. After cells reached confluence, some wells of cells were treated with TNFα (20 ng/ml), PPS (400 μg/ml), or PPS plus TNFα in 2% FBS medium for 8 hours. Then the medium from both the top and bottom chamber was completely removed, cells were washed twice with PBS and the top chamber was refilled with 0.2 ml 2% FBS medium supplemented with 0.5 mg/ml FITC-labeled BSA (Sigma Aldrich, St Louis, […].), while the bottom chamber was refilled with 0.6 ml 2% FBS medium supplemented with 0.5 mg/ml unlabeled BSA. At different time points, 100 μl aliquots were collected from the bottom chamber and fluorescence was measured by a fluorescence spectrophotometer (485 nm excitation, 535 nm emission). The concentration of FITC-BSA passing through the monolayer was determined by reference to a set of standard dilutions of FITC-BSA. The value of albumin flux through untreated monolayer was arbitrarily defined as 100%.

[1] = tested on: phosphorylated NF-κB (p65 (Ser276)); assay: Immunostaining for nuclear phosphorylated NF-κB in kidney; format: in vivo, mouse; conditions: PPS treated 22 month-old diabetic kidney
Excerpt: Paraffin sections from non-diabetic and diabetic mice were deparaffinized prior to staining for apoptosis, makers for inflammation such as macrophages (F4/80, 1:100, Caltag Laboratories, Burlingame, Calif.) and phosphorylated NF-κB (p65 (Ser276), 1:25, Cell Signaling Technology, Inc, Danvers, Mass.), markers for oxidative stress, i.e., nitrotyrosine (1:140, Upstate Biotechnology Inc, Billerica, Mass.) and malondialdehyde (MDA, 1:100, Alpha Diagnostic International Inc, San Antonio, Tex.), and markers for endoplasmic reticulum (ER) stress, i.e., phosphorylated pancreatic ER kinase (PERK, 1:5, Santa Cruz Biotechnology, Santa Cruz, Calif.), and phosphorylated eukaryotic initiation factor 2α (eIF2α, 1:50, Stressgen Bioreagents Corp, Norwalk, Conn.).
Stained sections were examined under light microscopy (Zeiss Axioskop, Germany). The cortical area of the kidney was digitized under ×10 objective low power with a Sony 3CCD color video camera and a meta imaging series software (Molecular Devices, Downingtown, Pa.). The area of positively stained tubules and glomeruli was measured and expressed as the percentage of total cortical area. The intensity of the staining was also assessed using the color differentiation program.

With pentosan polysulfate [PPS] as the substance, how does the “MMP-2 activity in aortic extracts” value (MMP-2) read?
Its value is “significantly increased”.

What about the “MMP-9 activity, reduction by PPS treatment” value (MMP-9) of the same substance?
Its value is 51.70%±10.77%.

What about the “TNFα mRNA expression in the kidneys” value (TNFα mRNA) of the same substance?
Its value is “completely prevented the upregulation; also recorded: absent”.

And the “TNFα-stimulated ERK1/2 phosphorylation” value (ERK1/2)?
The value was “suppressed”.

And the “inhibition of the flux of FITC-labeled BSA” value (podocytes; PPS 400 μg/ml plus TNFα 20 ng/ml, FIG. 18 legend)?
Its value is 34%.

And the “reduction of the TNFα-induced increase in FITC-labeled albumin passage” value (podocytes; PPS 400 μg/ml, TNFα 20 ng/ml)?
Its value is ~60%.

What about the “number of nuclei stained positively for phosphorylated NF-κB (p65 (Ser276))” value [1] of the same substance?
The value was “noticeably reduced”.
